Data published in ChEMBL document CHEMBL3297665, “Case Study of Small Molecules As Antimalarials: 2-Amino-1-phenylethanol (APE) Derivatives” (ACS Med Chem Lett, 2014).
The source made the active and inactive calls. The rule behind the calls is not given here.

Tested on: Plasmodium berghei
Test: Antiplasmodial activity against Plasmodium berghei infected in po dosed mouse assessed as reduction in parasitemia administered qd for 2 days relative to vehicle-treated control
Format: functional
Settings: not given

Question: With `CCC(C)(C)N[C@@H](C)[C@@H](O)c1ccc(C(F)(F)F)cc1` (racemic) [listing 1 of 2 here] as the molecule, how does the “inhibition (INH)” value read?
Answer: 64%

Question: Which “inhibition (INH)” value does the source give for `C[C@H](NC(C)(C)C)[C@@H](O)c1ccc(Cl)c(C(F)(F)F)c1` (racemic) [listing 1 of 2 here] here?
Answer: 76%

Tested on: not listed separately
Test: Inhibition of beta-hematin formation up to 100 uM
Settings: not given

Question: For `CCC(C)(C)N[C@@H](C)[C@@H](O)c1ccc(C(F)(F)F)cc1` (racemic) [listing 2 of 2 here], which inhibition is on record?
Answer: inactive

Question: With `C[C@H](NC(C)(C)C)[C@@H](O)c1ccc(Cl)c(C(F)(F)F)c1` (racemic) [listing 2 of 2 here] as the molecule, how does the inhibition read?
Answer: inactive

Tested on: Plasmodium falciparum
Test: Antiplasmodial activity against ring stage Plasmodium falciparum 3D7A infected in erythrocytes incubated for 24 hrs prior to [3H]hypoxanthine incorporation measured after 24 hrs
Format: functional, organism-based
Settings: not given

Question: Which IC50 does the source give for `CCC(C)(C)N[C@@H](C)[C@@H](O)c1ccc(C(F)(F)F)cc1` here?
Answer: 1400 nM

Question: For `CCC(C)(C)N[C@@H](C)[C@@H](O)c1ccc(Cl)c(Cl)c1`, which IC50 is on record?
Answer: 500 nM

Question: For `C[C@H](NC(C)(C)C)[C@@H](O)c1ccc(Cl)c(C(F)(F)F)c1`, which IC50 is on record?
Answer: 600 nM

Question: With `CCC(C)(C)N[C@@H](C)[C@@H](O)c1ccc(C(F)(F)F)cc1` (racemic) [listing 1 of 2 here] as the molecule, how does the IC50 read?
Answer: 400 nM

Question: With `CCC(C)(C)N[C@@H](C)[C@@H](O)c1ccc(Cl)c(Cl)c1` (racemic) as the molecule, how does the IC50 read?
Answer: 200 nM

Same assay, conditions: Plasmodium falciparum, 3D7A

Question: With `CCC(C)(C)N[C@H](C)[C@H](O)c1ccc(C(F)(F)F)cc1` as the molecule, how does the IC50 read?
Answer: 500 nM

Question: With `C[C@@H](NC(C)(C)C)[C@H](O)c1ccc(Cl)c(C(F)(F)F)c1` as the molecule, how does the IC50 read?
Answer: 300 nM

Question: For `CCC(C)(C)N[C@H](C)[C@H](O)c1ccc(Cl)c(Cl)c1`, which IC50 is on record?
Answer: 400 nM

Question: Which IC50 does the source give for `CC(NC(C)(C)C)C(O)c1ccccc1` (racemic) here?
Answer: > 5000 nM

Question: With `C[C@H](NC(C)(C)C)[C@H](O)c1ccc(Cl)c(Cl)c1` (racemic) as the molecule, how does the IC50 read?
Answer: > 5000 nM

Question: With `CC(C)(C)NCC(O)c1ccc(Cl)c(Cl)c1` (racemic) as the molecule, how does the IC50 read?
Answer: > 5000 nM

Question: Which IC50 does the source give for `OC(CNCc1ccccc1)c1ccc(Cl)c(Cl)c1` (racemic) here?
Answer: 700 nM

Question: With `Cc1ccc2ccccc2c1CNCC(O)c1ccc(Cl)c(Cl)c1` (racemic) as the molecule, how does the IC50 read?
Answer: > 5000 nM

Question: For `CCC(C)(C)N[C@@H](C)[C@H](O)c1ccc(C(F)(F)F)cc1` (racemic), which IC50 is on record?
Answer: > 5000 nM

Question: For `CCC(C)(C)N[C@@H](C)[C@H](O)c1ccc(Cl)c(Cl)c1` (racemic), which IC50 is on record?
Answer: 3900 nM

Question: For `C[C@H](NC(C)(C)C)[C@@H](O)c1ccc(Cl)c(Cl)c1` (racemic), which IC50 is on record?
Answer: 900 nM

Question: For `C[C@H](NC(C)(C)C)[C@@H](O)c1ccc(Cl)c(C(F)(F)F)c1` (racemic) [listing 1 of 2 here], which IC50 is on record?
Answer: 500 nM

Question: With `OC(CNC1CCCCCCC1)c1ccc(Cl)c(Cl)c1` (racemic) as the molecule, how does the IC50 read?
Answer: 70 nM

Question: Which IC50 does the source give for `OC(CNC1CCCCCC1)c1ccc(Cl)c(Cl)c1` (racemic) here?
Answer: 160 nM

Question: For `CC(NC(C)(C)C)C(O)c1ccc(Cl)c(C(F)(F)F)c1` (racemic), which IC50 is on record?
Answer: 4300 nM

Question: With `OC(CNC1CCCCC1)c1ccc(Cl)c(Cl)c1` (racemic) as the molecule, how does the IC50 read?
Answer: 720 nM

Question: For `C[C@H](N)[C@@H](O)c1ccc(C(F)(F)F)cc1` (relative stereo), which IC50 is on record?
Answer: > 5000 nM

Question: For `CCC(C)(C)N(C)[C@@H](C)[C@@H](O)c1ccc(C(F)(F)F)cc1` (relative stereo), which IC50 is on record?
Answer: > 5000 nM

Question: With `C[C@H](Nc1ccccc1)[C@@H](O)c1ccc(C(F)(F)F)cc1` (relative stereo) as the molecule, how does the IC50 read?
Answer: 5000 nM

Question: Which IC50 does the source give for `C[C@H](NC1CCCCC1)[C@@H](O)c1ccc(C(F)(F)F)cc1` (relative stereo) here?
Answer: 5000 nM

Tested on: not listed separately
Test: Inhibition of beta-hematin formation
Settings: not given

Question: Which IC50 does the source give for `O[C@@H](c1cc(C(F)(F)F)nc2c(C(F)(F)F)cccc12)[C@H]1CCCCN1` (relative stereo) [(S,R)-MEFLOQUINE] here?
Answer: 12200 nM
